Columns and labels:
14-3-3 = 14-3-3 level in cortical cultures, immunoblot; type: cell-based, rat; details: 50 μM, 24 hrs
Protocol: Primary rat neuron cultures were prepared from embryos of pregnant Sprague-Dawley rats (E18). The experimental protocol was approved by the University of British Columbia Animal Care Committee. Briefly, the cortical tissue or ventral midbrain tissue was isolated into ice cold HBSS (Invitrogen, 14170-112) and then digested with 0.25% trypsin-EDTA at 37° C. for 30 min. After washing with warm DMEM (supplemented with 10% FBS) three times, neurons were suspended in neuron culture media and dissociated by trituration using varying sizes of pipettes. Neurons were then centrifuged, and the pellet was re-suspended in culture media, washed twice with culture media, and plated on the poly-D-lysine-coated plates. Neuron culture was maintained in the 37° C. incubator with 95% O2 and 5% CO2. The morning after culturing, 2/3 of the neuron culture media was replaced with fresh neuron culture media. Media was then replaced every 3-4 days. […]
Brain tissues or cultured cells were lysed on ice in the lysis buffer and then the solution was centrifuged at 14,000 rpm for 10 min at 4° C. Next, the supernatant was collected and protein concentrations were determined using a BCA protein assay kit (Thermo Scientific, 23227). […] The band density of each protein was quantified by the Bio-Rad Quantity One software and the relative optical density was analyzed relative to the loading control β-actin on the same membrane.

human A53T α-synuclein = target: T1, human A53T α-synuclein (Homo sapiens, UniProt P37840, A53T); assay: Brain α-synuclein ELISA in M83 transgenic mice after i.p. injection; type: in vivo, mouse; details: 40 mg/kg i.p.
T1 construct: tissue The Jackson Laboratory 004479; host or cells: brain of M83 hemizygous transgenic mice
Protocol: Tat-βsyn-degron peptide was also shown to decrease α-synuclein levels in vivo, using M83 transgenic mice that overexpress mutant human A53T α-synuclein. M83 mice, injected intra-peritoneally (i.p.) with 40 mg/kg Tat-βsyn-degron peptide, were sacrificed at time points of 6, 12, 24, and 48 hrs and α-synuclein levels in the brain were measured by ELISA.
Male M83 hemizygous mice overexpressing the human A53T α-synuclein mutant (12 weeks old, 25-30 g, 004479, The Jackson Laboratory) were housed individually and maintained on a 12/12 hrs light/dark cycle at 22° C. ambient temperature and with unlimited access to food and water. Housing, breeding, and procedures were performed according to the Canadian Council on Animal Care and were approved by the McGill University Animal Care Committee.
Brains were lysed (1 g tissue per 3 mL solution) in a buffer solution (50 mM Tris pH 8, 150 mM NaCl, 5 mM EDTA, 1% NP-40, 0.5% sodium deoxycholate, 0.1% SDS, protease and inhibitor cocktail [aprotinin, leupeptin and benzamidine], and phosphatase inhibitor cocktail) on ice. Lysates were homogenized at 1,600 g several times, sonicated and finally centrifuged at 100,000 g for 30 min. The supernatant was collected and processed with the Human α-synuclein ELISA kit (KHB0061, ThermoFisher Scientific) and analyzed with a Tecan microplate reader (Tecan Infinite M200 Pro, life science). The level of α-synuclein was expressed as ng/ml total sample.

dopaminergic neurons = assay: MPTP mouse model, dopaminergic neuronal damage (TH immunoblotting, TH immunohistochemistry); type: in vivo; details: peptide 6 μmol/kg i.p. twice a day for 12 days
Protocol: C57BL/6 mice were i.p. injected with 30 mg/kg parkinsonian toxin MPTP (or saline as control), once per day for 5 consecutive days, to induce dopaminergic neuron damage. The effects of MPTP administration on mouse rotarod performance and damage to dopaminergic neurons were then analyzed 1 week after the last injection of MPTP. To determine the effect of α-synuclein knockdown in protecting dopaminergic neurons against MPTP, the Tat-βsyn-degron peptide or its control Tat-βsyn (6 μmol/kg; i.p.) was used in some animals twice a day for 12 days, beginning the first day of MPTP injection. […] The striatum is a region that receives dopaminergic neuronal projections from the substantia nigra and is also deeply affected in PD. Consistent with the specific neurotoxic effects of MPTP on dopaminergic neurons, in mice receiving MPTP injection alone there was a significant loss of protein TH in both dopaminergic neurons in the substantia nigra-containing ventral midbrain (FIGS. 6a and 6c) and dopaminergic neuronal terminals in the striatum (FIGS. 6d and 6f). […] As expected, the specific knockdown of α-synuclein by Tat-βsyn-degron protected against MPTP-induced dopaminergic neuronal injury (FIGS. 6c and 6f).
C57BL/6 mice (20-25 g) received intraperitoneal (i.p.) injection of 30 mg/kg parkinsonian toxin MPTP hydrochloride once a day for 5 days to induce dopaminergic neuron death in the substantia nigra, while the control mice received equal volumes of saline injection. 6 μmol/kg Tat-βsyn-degron peptide or control Tat-βsyn peptide was i.p. injected into the MPTP-treated mice every 12 hrs from the first day of MPTP injection until 7 days after the last injection of MPTP. All groups of mice then underwent a rotarod test before they were sacrificed.
Brain tissues or cultured cells were lysed on ice in the lysis buffer and then the solution was centrifuged at 14,000 rpm for 10 min at 4° C. Next, the supernatant was collected and protein concentrations were determined using a BCA protein assay kit (Thermo Scientific, 23227). Equal amount of protein samples was mixed with 4× sample buffer, boiled at 100° C. for 5 min, and separated on 10% sodium dodecyl sulphate-polyacrylamide gel electrophoresis (SDS-PAGE). Proteins were then transferred to Immobilon-PTM polyvinylidene fluoride (PVDF) membranes (Bio-Rad, 162-0177). The membranes were blocked with 5% non-fat milk in Tris-buffered saline containing 0.1% Tween-20 (TBST) for 1 hr at room temperature, and then incubated overnight at 4° C. with primary antibody. After washing 3×5 min in TBST, membranes were incubated with horseradish peroxidase-conjugated secondary antibody for 1 hr at room temperature. After another three washes with TBST, protein was visualized in the Bio-Rad Imager using ECL western blotting substrate (Pierce, 32016). The band density of each protein was quantified by the Bio-Rad Quantity One software and the relative optical density was analyzed relative to the loading control β-actin on the same membrane.
C57BL/6 mice were anesthetized with 1.5 g/kg urethane (Sigma, U2500) and then perfused with 0.9% saline and 4% paraformaldehyde. Brains were removed and fixed in 4% paraformaldehyde for 24 hrs before being transferred to 30% sucrose/PBS solution for cryoprotection. The brains were then sectioned into 30 μm slices using a Leica cryostat. After blocking and permeabilization using a PBS solution containing 1% BSA and 0.2% Triton X-100 for 30 min at room temperature, the brain slices were incubated with anti-TH antibody (1:800 dilution) for 3 days at 4° C. Finally, the TH-positive neurons in the substantia nigra and TH-positive neuronal terminals in the striatum were stained using the anti-mouse Ig HRP detection kit (BD Transduction Laboratories, 551011) according to manufacturer's instruction, and visualized under Zeiss Axio Observer D1 microscope. […]

[1] = MPTP 30 mg/kg x5 days, immunoblot

Sequence: YGRKKRRQRRRRTKSGVYLVGRRRG (The sequence is synthesized (YGRKKRRQRRRRTKSGVYLVGRRRG)) [Tat-βsyn-degron]
- expression level of 14-3-3 (14-3-3): did not affect the expression levels
- time of peak effect on brain α-synuclein (human A53T α-synuclein): around 24 hrs
- α-synuclein levels in the brain (ELISA) (human A53T α-synuclein; 12 hrs): reduction of α-synuclein levels
- α-synuclein levels in the brain (ELISA) (human A53T α-synuclein; 24 hrs): reduction of α-synuclein levels
- TH protein level in striatum after MPTP (dopaminergic neurons; [1]): protected against the MPTP-induced decrease in the level of TH protein
- TH protein level in ventral midbrain after MPTP (dopaminergic neurons; [1]): protected against the MPTP-induced decrease in the level of TH protein
- MPTP-induced dopaminergic neuronal damage (overall, FIG. 6 and FIG. 7a-d) (dopaminergic neurons): largely protected
- density of dopaminergic neuronal terminals in the striatum after MPTP (dopaminergic neurons; TH densitometry): protected against MPTP-induced decrease
- number of dopaminergic neurons in the substantia nigra pars compacta after MPTP (dopaminergic neurons; blinded TH neuron counting): protected against MPTP-induced decrease in the number of dopaminergic neurons

Reference: US20260027179A1, “ANTI-SYNUCLEINOPATHY PEPTIDE AND METHODS TO TREAT NEURODEGENERATIVE DISEASES” (University of British Columbia, priority 2021, published 2026)
